Source: patent US8986733B2, “Materials and methods for nerve repair” (University of Florida Research Foundation, Inc., priority 2001, dated 2015)

Test system: CSPG
Assay: CSPG-neoepitope immunolabeling of injured sciatic nerve after in vivo injection
Parameters: species or system rat
Settings: single injection 1 U in 2 μl, 2 mm distal to injury; 4 days (transection) or 2 days (crush)
Procedure: Surgical procedures for nerve transection and nerve crush experiments. All surgical procedures were performed according to Institutional Animal Care and Use Committee (IACUC) approved protocols. Young adult SPRAGUE DAWLEY rats (HARLAN Indianapolis, Ind.) were deeply anesthetized with xylazine (15 mg/kg, i.m.) followed by ketamine-HCl (110 mg/kg, i.p.). Six animals received bilateral nerve crush injuries. Sciatic nerves were exposed and then crushed with firm pressure for thirty seconds with a DUMONT #5 forceps at a site 4 mm distal to the tendon of the internal obdurator. The crush site was marked with an epineurial suture. In a separate set of experiments, eight rats received bilateral sciatic nerve transection injuries using serrated scissors. The proximal and distal stumps were […] by epineurial neurorrhaphy using 9-0 ETHILON sutures. Fibrin glue (fibrinogen and thrombin) was then applied to stabilize the union. In both injury models, the right sciatic nerves were injected 2-mm distal to the injury with chondroitinase ABC (1 U in 2 μl) (high-purity, protease-free; SIGMA CHEMICAL CO., St. Louis, Miss.). Left sciatic nerves (with the same injury as the right side) were injected with vehicle alone (0.1% bovine serum albumin in PBS). […]
Immunocytochemistry. Axonal regeneration was assessed by GAP-43 immunofluorescence and digital image analysis. […]

Substance: chondroitinase ABC
- CSPG degradation in extracellular matrix around injection site: substantially, if not completely, degraded CSPG
